In patent US12157730B2, “Heteroaryl derivative, method for producing same, and pharmaceutical composition comprising same as effective component” (VORONOI INC., priority 2019, dated 2024):

Target: T1, Ba/F3 cell EGFR Exon20 ins NPH (Homo sapiens, UniProt P00533, INS773NPH)
T1 construct: expressed in transfected cells; host or cells: Ba/F3
Test: Ba/F3 cell proliferation suppression, EGFR Exon20 ins NPH
Type: cell-based
Settings: GI50 class; Ba/F3 cell line with NPH inserted at Exon20 of EGFR; 72 hours
In short: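 Seed 3000–5000 cells/well; after 24 h add compound (12 conc., 0.3 nM–50 um final); incubate 72 h; add CellTiter-Glo, 10 min room temperature; read luminescence; GI50 from % growth vs control, triplicate.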

Structure (SMILES) | Ba/F3 (NPH) Activity
COc1cc(N2CCOCC2)c(NC(=O)/C=C/CN(C)C)cc1Nc1cc(N2OCC[C@@H]2c2cc(F)cc(F)c2)ncn1 [compound 397, N-(5-((6-((R)-3-(3,5-difluorophenyl)isoxazolidine-2-yl)pyrimidine-4-yl)amino)-4-methoxy-2-morpholinophenyl)-(E)-4-(dimethylamino)but-2-enamide] | A (GI50 < 50 nM)
C=CC(=O)Nc1cc(Nc2cc(N3OCC[C@H]3Cc3cccnc3)ncn2)c(OC)cc1N1CCC(N2C[C@@H]3C[C@H]2CO3)CC1 [compound 989, N-(2-(4-((1S,4S)-2-oxa-5-azabicyclo [2.2.1]heptane-5-yl)piperidine-1-yl)-4-methoxy-5-((6-((R)-3-(pyridine-3-ylmethyl)isoxazolidine-2-yl)pyrimidine-4-yl)amino)phenyl)acrylamide] | B (50 nM ≤ GI50 < 500 nM)
C=CC(=O)Nc1cc(Nc2cc(N3OCC[C@@H]3c3ccc(C)nc3)ncn2)c(OC)cc1N1CCC(N2C[C@H]3C[C@@H]2CN3C)CC1 [Example 234, N-(4-methoxy-2-(4-((1R,4R)-5-methyl-2,5-diazabicyclo[2.2.1]heptane-2-yl)piperidine-1-yl)-5-((6-((R)-3-(6-methylpyridine-3-yl)isoxazolidine-2-yl)pyrimidine-4-yl)amino)phenyl)acrylamide] | C (500 nM ≤ GI50 < 5000 nM)
C=CC(=O)Nc1cc(Nc2cc(N3OCC[C@@H]3c3cccc(Cl)c3Cl)ncn2)c(OC)cc1N1CCN(C2CCCC2)CC1 [compound 563, N-(2-(4-cyclopentylpiperazine-1-yl)-5-((6-((R)-3-(2,3-dichlorophenyl)isoxazolidine-2-yl)pyrimidine-4-yl)amino)-4-methoxyphenyl) acrylamide] | A (GI50 < 50 nM)
C=CC(=O)Nc1cc(Nc2cc(N3OCC[C@@H]3c3ccc(Cl)c(Cl)c3F)ncn2)c(OC)cc1N1CCC(N2CCN(C3CC3)CC2)CC1 [Example 60, N-(2-(4-(4-cyclopropylpiperazine-1-yl)piperidine-1-yl)-5-((6-((R)-3-(3,4-dichloro-2-fluorophenyl)isoxazolidine-2-yl)pyrimidine-4-yl)amino)-4-methoxyphenyl) acrylamide;] | A (GI50 < 50 nM)

The remaining lines, values ahead:

Ba/F3 (NPH) Activity | Structure (SMILES)
A (GI50 < 50 nM) | C=CC(=O)Nc1cc(Nc2cc(N3OCC[C@@H]3c3cccc(Cl)c3)ncn2)c(OC)cc1N1CCC(N2CCOCC2)CC1 [compound 417, N-(5-((6-((R)-3-(3-chlorophenyl)isoxazolidine-2-yl)pyrimidine-4-yl)amino)-4-methoxy-2-(4-morpholinopiperidine-1-yl)phenyl) acrylamide]
B (50 nM ≤ GI50 < 500 nM) | C=CC(=O)Nc1cc(Nc2cc(N3OCC[C@@H]3c3cc(F)cc(F)c3)ncn2)c(OC)cc1N1CC[C@H](N2CCOCC2)C1 [Example 272, N-(5-((6-((R)-3-(3,5-difluorophenyl)isoxazolidine-2-yl)pyrimidine-4-yl)amino)-4-methoxy-2-((S)-3-morpholinopyrolidine-1-yl)phenyl)acrylamide]
A (GI50 < 50 nM) | C=CC(=O)Nc1cc(Nc2cc(N3OCC[C@@H]3c3ccc(Cl)c(F)c3)ncn2)c(OC)cc1N1C[C@H]2C[C@@H]1CO2 [compound 863, N-(2-((1R,4R)-2-oxa-5-azabicyclo [2.2.1]heptane-5-yl)-5-((6-((R)-3-(4-chloro-3-fluorophenyl)isoxazolidine-2-yl)pyrimidine-4-yl)amino)-4-methoxyphenyl) acrylamide]
A (GI50 < 50 nM) | C=CC(=O)Nc1cc(Nc2cc(N3OCC[C@@H]3c3ccc(F)c(Cl)c3)ncn2)c(OC)cc1N1C[C@H]2C[C@@H]1CO2 [compound 903, N-(2-((1R,4R)-2-oxa-5-azabicyclo [2.2.1]heptane-5-yl)-5-((6-((R)-3-(3-chloro-4-fluorophenyl)isoxazolidine-2-yl)pyrimidine-4-yl)amino)-4-methoxyphenyl) acrylamide]
